Data reported in patent EP4480943A1, “NEW CLASS OF LIPIDS FOR DELIVERING ACTIVE INGREDIENTS INTO CELLS” (Oz Biosciences, priority 2023, dated 2024).

Key:
F-Luc mRNA expression = test: In vivo transfection of F-Luc mRNA using LNPs, bioluminescence (IVIS imaging); details: nude mice, i.p.
Text: Lipids I, VI and XIV have been formulated into LNPs following the molar composition depicted before (Table 1). 5-methoxyuridine-modified mRNA encoding for Firefly Luciferase (OZ Biosciences, Cat: MRNA16-1000) has been entrapped into the LNP. […] Table 3: Main physical properties of mRNA(F-Luc) LNPs based on tunable lipids I, VI, XIV, and cationic lipid DOTAP
Overall, all LNPs formulations display consistent physico-chemical properties, controlled and reproducible size, charge, polydispersity and encapsulation rate to be used in small animals. A dose equivalent to 10 µg of mRNA has been injected i.p. (intra-peritoneally) in nude mice using three different LNPs. Tunable lipids I and XIV and DOTAP-based LNPs have been selected. Bioluminescence has been monitored over time using IVIS imaging system. […] Indeed 3h post injection, luminescence could be observed in all animals at different proportions (Figure 50). Specifically, F-Luc mRNA expression was higher in mice that received LNPs based on tunable lipids, whereas expression was much lower when DOTAP is used.

[1] = Encapsulation efficiency / loaded nucleic acid by SyBr Gold fluorescence after Triton X-100 disruption; format: physicochemical
Procedure: (§1) The size and charge of the collected LNPs are determined using DLS (Malvern Instruments NanoZS) by dissolving 50 µL of the collected solution in 950 µL of MilliQ water. Then, formed LNPs are destabilized by adding 1% v/v of Triton X-100 and incubate at 30°C for 1h and vortexing. After disruption of the formulation, a 1/100 solution of SyBr™Gold in water is prepared, and 0.5µL of it added to 49.5µL of the resulting mixture that includes Triton X-100. The SyBr™Gold is also added the same way to 49.5µL of a solution that contains non-disrupted LNPs, and to 49.5µL of the mRNA mother solution. Fluorescence of each sample is then read after 30 min incubation at RT using a Victor (Perkin Elmer) fluorimeter (excitation: 495nm; emission: 537nm ;). The encapsulation efficiency (ee(%)) is easily obtained from these fluorescence measurements using the formula below: ee (%) = ((Fluo_LNP1v%triton−Fluo_LNP))/(Fluo_RNAstock solution) × 100 [formula]

[2] = Size and charge of LNPs by DLS (Malvern NanoZS); format: physicochemical
Procedure: Thin layer chromatographies (TLC) are carried out on aluminium plates covered with silica gel 60 Fasa (Merck). […] The synthesized products are purified on chromatography columns on silica. The flash chromatography separations are carried out on silica gel 60 (230-400 mesh ASTM) (Merck). Particle size and zeta potential measurements: The mean hydrodynamic particle size and charge measurements were performed using Dynamic Light Scattering (DLS) and Laser Doppler Velocimetry (LDV), respectively, using Malvern Nano ZS instrument and DTS software (Malvern Instruments, UK) in a water of Grade 2. Various amounts of cationic poloxamers were diluted in 100 µl of water and mixed with an equal volume of the same water containing DNA. The measurements were carried out in automatic mode and the results are presented as mean +/- SEM, n= 3. Each mean represents the average value of 30 measurements.
as §1

ovalbumin (OVA) antigen = test: In vivo immunization with OVA mRNA LNPs, ELISA and Elispot; details: C57BL6J mice, s.c. prime boost (D0-14), 10µg mRNA
Text: In this context, the emergence of vaccine-based LNPs represents a clear opportunity to reach pathologies impossible to fight with more classical vaccine approach. The tunable lipid presented in this document could envisioned as potent pillar for future nucleic acid-based vaccine, due to their ground-breaking features in term of efficiency and safe character. Thus, LNPs based on tunable lipids I and XIV have been formulated to encapsulate unmodified mRNA coding for the ovalbumin (OVA) antigen (OZ Biosciences, Cat: MRNA42-1000) and their physico-chemical properties determined (Table 4). Table 4: Main physical properties of mRNA(OVA) LNPs based on tunable lipids I and XIV.
C57BL6J mice received a prime boost (D0-14) immunizations of OVA antigen delivered by mRNA-based LNPs or by recombinant protein (alone or adjuvanted with aluminium-based adjuvant). To characterize the immuno-phenotyping of the mice, the sera and splenocytes were collected at different time (D0, D14, D21, D28) and analysed by ELISA and Elispot. The mice were immunized by s.c (sub-cutaneous) route with 100µL per injection at 10µg OVA subunit and 10µg mRNA doses. Results are depicted in figures 51 and 52, mRNA-OVA LNP formulations are efficient at priming a strong humoral response upon sub-cutaneous prime boost injection (D0-14). Indeed, a strong antibody response was measured after prime boost immunization. […]

firefly luciferase = test: Biodistribution study of Luciferase mRNA LNPs, RT-PCR of organs; format: in vivo; details: nude mice, i.p., 10µg RNA dose, RT-PCR 6 hours after injection
Procedure: Biodistribution study involving tunable lipids-based LNPs (lipids I, VI, and XIV) has also been conducted in nude mice that were injected i.p. with Luciferase mRNA formulated into 3 different LNPs formulations at 10µg RNA dose to evaluate the nucleic acid delivery into various organs. The liver, lung, kidney and spleen were collected and analysed through RT-PCR 6 hours after injection. As observed previously, tunable lipids-based LNPs are appropriately efficient to allow the observation and quantitation of Luciferase protein in quantity 6 hours after i.p. injection.

[3] = mRNA(F-Luc) LNPs, total lipid 5 mM, N/P 6
[4] = mRNA(GFP) LNPs, total lipid 3.75 mM, N/P 6
[5] = DNA pVectOZ (eGFP) LNPs, total lipid 3.91 mM, N/P 6.6
[6] = DNA pVectOZ(Ppt) LNPs, total lipid 4 mM, N/P 10
[7] = mRNA(OVA) LNPs, total lipid 5 mM, N/P 6
[8] = NTsiRNA-Cy5 LNPs, DiO Label N, total lipid 4.74 mM, N/P 6
[9] = NTsiRNA-Cy5 LNPs, DiO Label Y, total lipid 4.74 mM, N/P 6
[10] = DNA pVectOZ (F-Luc) LNPs, total lipid 4.6 mM, N/P 12

For `CCCCCCCC/C=C\CCCCCCCC(=O)OCC(C[N+](C)(C)C)OC(=O)CCCCCCC/C=C\CCCCCCCC` (centres unmarked) [DOTAP, I ,2-dioleoy-3-tri-methylarnmonium propane, reference compound], the “F-Luc mRNA expression (bioluminescence)” value (F-Luc mRNA expression; 10 µg of mRNA, 3h post injection) was “much lower”, the “Encapsulation Efficiency” value [1, 3] was 91.5% and the “Loaded RNA” value [1, 3] was 183 ng/µL. For the same compound, the PDI [2, 3] was 0.23, the Size [2, 3] was 96 nm and the Zeta [2, 3] was “+17 mV”.

For `CCCCCCC/C=C\CCCCCCCCNC(=O)CCC(NC(=O)CCCN(C)C)C(=O)NCCCCCCCC/C=C\CCCCCCCC` (centres unmarked) [II], the “Encapsulation Efficiency” value [1, 4] was 98.8%, the “Loaded RNA” value [1, 4] was 98.8 ng/µL and the PDI [2, 4] was 0.2. The Size [2, 4] was 113 nm and the Zeta [2, 4] was 5.57 mV.

In the case of `CCCCCCCC/C=C\CCCCCCCCNC(=O)CCC(NC(=O)CN(C)C)C(=O)NCCCCCCCC/C=C\CCCCCCCC` (centres unmarked) [I], the “immune response (initial response of IgG2c)” value (ovalbumin (OVA) antigen) is reported as “efficient in generating an immune response”, the “time of maximum bioluminescence signal post injection” value (F-Luc mRNA expression; 10 µg mRNA) is reported as 6 h and the “overall luminescence signal (kinetics)” value (F-Luc mRNA expression; 10 µg mRNA, over 25h) is reported as “highest overall luminescence signal”. For the same compound, the “Luciferase gene expression in lung” value (firefly luciferase) was “high protein expression rate”, the “Luciferase gene expression in spleen” value (firefly luciferase) was “high protein expression rate” and the “Encapsulation Efficiency” value [1, 5] was 83%. The “Loaded DNA” value [1, 5] was 0.125 ng/µL, the “Encapsulation Efficiency” value [1, 6] was 82% and the “Loaded DNA” value [1, 6] was 0.125 ng/µL. For the same compound, the “Encapsulation Efficiency” value [1, 3] was 97.5%, the “Loaded RNA” value [1, 3] was 195 ng/µL and the “Encapsulation Efficiency” value [1, 4] was 94.6%. The “Loaded RNA” value [1, 4] was 94.6 ng/µL, the “Encapsulation Efficiency” value [1, 7] was 98.1% and the “Loaded RNA” value [1, 7] was 98.1 ng/µL. The PDI [2, 5] was 0.044, the Size [2, 5] was 158.9 nm and the Zeta [2, 5] was “+4.61 mV”. The PDI [2, 6] was 0.079, the Size [2, 6] was 173 nm and the Zeta [2, 6] was “+14.3 mV”. For the same compound, the PDI [2, 3] was 0.09, the Size [2, 3] was 88 nm and the Zeta [2, 3] was -7.3 mV. For the same compound, the Zeta [2, 4] was -9.3 mV, the PDI [2, 7] was 0.153 and the Size [2, 7] was 111.4 nm. It also gave a Zeta [2, 7] of -9.01 mV.

In the case of `CCCCCCCC/C=C\CCCCCCCCNC(=O)CCC(NC(=O)CCC(=O)NCCSSCCNC(=O)CN(C)C)C(=O)NCCCCCCCC/C=C\CCCCCCCC` (centres unmarked) [VI], the “Luciferase gene expression in liver” value (firefly luciferase) is reported as “rate comparable to those observed in the lungs”, the “Luciferase gene expression in spleen” value (firefly luciferase) is reported as “high delivery” and the “Encapsulation Efficiency” value [1, 3] is reported as 94%. The “Loaded RNA” value [1, 3] was 188 ng/µL, the “Encapsulation Efficiency” value [1, 4] was 84% and the “Loaded RNA” value [1, 4] was 84 ng/µL. It also gave a PDI [2, 3] of 0.13, a Size [2, 3] of 115 nm and a Zeta [2, 3] of -2.25 mV. For the same compound, the PDI [2, 4] was 0.344, the Size [2, 4] was 117 nm and the Zeta [2, 4] was “+0.3 mV”.

In the case of `CCCCCCC/C=C\CCCCCCCCNC(=O)CCC(NC(=O)OCCN(CC)CC)C(=O)NCCCCCCCC/C=C\CCCCCCCC` (centres unmarked) [V], the “Encapsulation Efficiency” value [1, 4] is reported as 89% and the “Loaded RNA” value [1, 4] is reported as 89 ng/µL.

In the case of `CCCCC/C=C\C/C=C\CCCCCCCCNC(=O)CCC(NC(=O)CCCN(C)C)C(=O)NCCCCCCCC/C=C\C/C=C\CCCCC` (centres unmarked) [XIV], the “immune response (initial response of IgG2c)” value (ovalbumin (OVA) antigen) is reported as “efficient in generating an immune response”, the “time of maximum bioluminescence signal post injection” value (F-Luc mRNA expression; 10 µg mRNA) is reported as 3 h and the “Luciferase gene expression in kidney” value (firefly luciferase) is reported as “most efficient between the three tested formulation”. The “Luciferase gene expression in lung” value (firefly luciferase) was “highest rate of gene expression”, the “Encapsulation Efficiency” value [1, 8] was >90% and the “Loaded siRNA” value [1, 8] was 0.125 ng/µL. For the same compound, the “Encapsulation Efficiency” value [1, 9] was >90%, the “Loaded siRNA” value [1, 9] was 0.125 ng/µL and the “Encapsulation Efficiency” value [1, 3] was 87.5%. The “Loaded RNA” value [1, 3] was 175 ng/µL, the “Encapsulation Efficiency” value [1, 4] was 91% and the “Loaded RNA” value [1, 4] was 91 ng/µL. The “Encapsulation Efficiency” value [1, 7] was 94%, the “Loaded RNA” value [1, 7] was 94 ng/µL and the PDI [2, 8] was 0.222. For the same compound, the Size [2, 8] was 114 nm, the Zeta [2, 8] was “+27 mV” and the PDI [2, 9] was 0.198. For the same compound, the Size [2, 9] was 106 nm, the Zeta [2, 9] was -2.46 mV and the PDI [2, 3] was 0.13. The Size [2, 3] was 99 nm, the Zeta [2, 3] was “+4.85 mV” and the PDI [2, 4] was 0.186. The Size [2, 4] was 115 nm, the PDI [2, 7] was 0.149 and the Size [2, 7] was 131.7 nm. It also gave a Zeta [2, 7] of -7.9 mV.

With `CCCCC/C=C\C/C=C\CCCCCCCCOC(=O)CCC(NC(=O)CCCN(C)C)C(=O)OCCCCCCCC/C=C\C/C=C\CCCCC` (centres unmarked) [XI] the “Encapsulation Efficiency” value [1, 10] was 92%, the “Loaded DNA” value [1, 10] was 94 ng/µL and the “Encapsulation Efficiency” value [1, 8] was >90%. The “Loaded siRNA” value [1, 8] was 0.125 ng/µL, the “Encapsulation Efficiency” value [1, 9] was >90% and the “Loaded siRNA” value [1, 9] was 0.125 ng/µL. For the same compound, the PDI [2, 10] was 0.079, the Size [2, 10] was 103 nm and the Zeta [2, 10] was “+16.5 mV”. For the same compound, the PDI [2, 8] was 0.091, the Size [2, 8] was 116 nm and the Zeta [2, 8] was “+18.2 mV”. For the same compound, the PDI [2, 9] was 0.073, the Size [2, 9] was 99 nm and the Zeta [2, 9] was “+19.9 mV”. For the same compound, the polydispersity index ([2]; NTsiRNA-Cy5 LNPs, with or without DiO) was “below 0.1”.

With `CCCCCCCC/C=C\CCCCCCCC(=O)NCCCC(NC(=O)CCCCCCC/C=C\CCCCCCCC)C(=O)NCCCn1ccnc1` (centres unmarked) [XV] the “Encapsulation Efficiency” value [1, 4] was 78.3% and the “Loaded RNA” value [1, 4] was 78.3 ng/µL.

For `CCCCC/C=C\C/C=C\CCCCCCCCOC(=O)CCC(NC(=O)CN(C)C)C(=O)OCCCCCCCC/C=C\C/C=C\CCCCC` (centres unmarked) [X], the “Encapsulation Efficiency” value [1, 4] was 83.6%, the “Loaded RNA” value [1, 4] was 83.6 ng/µL and the PDI [2, 4] was 0.109. For the same compound, the Size [2, 4] was 141 nm and the Zeta [2, 4] was “+11.6 mV”.
